# Literature values, collected in PubChem BioAssay AID1259409 (Chemical Carcinogenesis Research Information System (CCRIS), 2018).
# Tested on: rodent chemically induced tumor inhibition, incidence and multiplicity
# Assay: CCRIS tumor inhibitor studies
compound,measurement,setting,value
NC(=O)CC[C@H](N)C(=O)O,outcome,"Carcinogen: 7,12-Dimethylbenz(a)anthracene, 57-97-6, Dose [Inhibitor]: 0, 1 g/kg/day for 4 wks, Route [Inhibitor]: Oral (gavage), Species: Rat, Strain/Sex: (16/Group), Target Tissue: Type of Lesion: Mammary Gland: tumor, Dose [Carcinogen]: 100 mg/kg once at 50 days of age, study duration 4 wks, Promoter: None","93.8%, 31.2%"
same,outcome,"Carcinogen: 7,12-Dimethylbenz(a)anthracene, 57-97-6, Dose [Inhibitor]: 0, 1 g/kg/day for 11 wks, Route [Inhibitor]: Oral (gavage), Species: Rat, Strain/Sex: (16/Group), Target Tissue: Type of Lesion: Mammary Gland: tumor, Dose [Carcinogen]: 100 mg/kg once at 50 days of age, study duration 11 wks, Promoter: None","93.8%, 43.7%"
O=c1c(-c2ccc(O)cc2)coc2cc(O)cc(O)c12,"tumour outcome (control, treated, inhibition, significance)","Carcinogen: 7,12-DIMETHYLBENZ[A]ANTHRACENE (57-97-6), Dose [Inhibitor]: 140 MG/KG DIET FOR 17 WKS (STUDY DURATION: 17 WKS), Route [Inhibitor]: DIET, Species: RAT, Strain/Sex: SPRAGUE-DAWLEY/FEMALE (20,18)/(20,19), Target Tissue: Type of Lesion: MAMMARY, Dose [Carcinogen]: 12.5 MG ONCE 1 WK AFTER START OF DIET (STUDY DURATION: 17 WKS)","95%, 85%, 11%, p=0.408"
same,"tumour outcome (control, treated, inhibition, significance)","Carcinogen: 7,12-DIMETHYLBENZ[A]ANTHRACENE [57-97-6], Dose [Inhibitor]: 20 UG/L IN 0.05 ML PEANUT OIL 2X/WK FOR 2 WK BEGINNING AT 7 D OF AGE (STUDY DURATION: 24 WK), Route [Inhibitor]: SUBCUTANEOUS, Species: RAT, Strain/Sex: SPRAGUE-DAWLEY/FEMALE, Target Tissue: Type of Lesion: MAMMARY GLAND: TUMOR, Dose [Carcinogen]: 10 MG IN 1 ML PEANUT OIL ONCE AT 45 D OF AGE (STUDY DURATION: 24 WK), Promoter: NONE","17/30 (57%), 13/30 (43%), 25%, not significant"
same,"tumour outcome (control, treated, inhibition, significance)","Carcinogen: 7,12-DIMETHYLBENZ[A]ANTHRACENE, 57-97-6, Dose [Inhibitor]: 0, 25 PPM IN DIET FOR 50 WK BEGINNING 1 WK POST-CARCINOGEN DOSE (STUDY DURATION: 51 WK), Route [Inhibitor]: ORAL, Species: RAT, Strain/Sex: SPRAGUE-DAWLEY/FEMALE, Target Tissue: Type of Lesion: OVARY: ADENOCARCINOMA, Dose [Carcinogen]: 0.01 ML OF 0.5% DMBA IN OLIVE OIL INTO THE LEFT OVARY, ONCE, UNDER PENTOBARBITAL ANESTHESIA, Promoter: NONE USED","7/20 (35%), 1/20 (5%), 86%, p=0.02"
same,"tumour outcome (control, treated, inhibition, significance)","Carcinogen: 7,12-DIMETHYLBENZ[A]ANTHRACENE, 57-97-6, Dose [Inhibitor]: 0, 250 PPM IN DIET FOR 50 WK BEGINNING 1 WK POST-CARCINOGEN DOSE (STUDY DURATION: 51 WK), Route [Inhibitor]: ORAL, Species: RAT, Strain/Sex: SPRAGUE-DAWLEY/FEMALE, Target Tissue: Type of Lesion: OVARY: ADENOCARCINOMA, Dose [Carcinogen]: 0.01 ML OF 0.5% DMBA IN OLIVE OIL INTO THE LEFT OVARY, ONCE, UNDER PENTOBARBITAL ANESTHESIA, Promoter: NONE USED","7/20 (35%), 0/20 (0%), 100%, p=0.0042"
same,"tumour outcome (control, treated, inhibition, significance)","Carcinogen: 7,12-DIMETHYLBENZ[A]ANTHRACENE, 57-97-6, Dose [Inhibitor]: 0, 500 UG/G BW ONCE ON DAYS 16, 18 AND 20 OF AGE (STUDY DURATION: 200 D), Route [Inhibitor]: SUBCUTANEOUS, Species: RAT, Strain/Sex: SPRAGUE-DAWLEY/FEMALE, Target Tissue: Type of Lesion: MAMMARY GLAND: TUMOR, Dose [Carcinogen]: 80 UG/G BW IN SESAME OIL ONCE AT 50 DAYS OF AGE, Promoter: NONE USED","92%, 85%, 8%, not significant"
same,outcome,"Carcinogen: Dimethylbenzanthracene, 57-97-6, Dose [Inhibitor]: 10 mg/kg bw/day, suspended in distilled water daily by gavage, dose duration 12 wk, study duration 18 wk, Route [Inhibitor]: Oral, Species: Hamster, Strain/Sex: Syrian golden/Male, Target Tissue: Type of Lesion: Oral cavity, Dose [Carcinogen]: 100 ul of 0.5% DMBA in mineral oil applied with a paint brush 3 times/wk for 6 wk, Promoter: None","15/28 (53%), 11/27 (40.7%), not significant"
same,"tumour outcome (control, treated, inhibition, significance)","Carcinogen: N-METHYL-N'-NITRO-N-NITROSOGUANADINE, 70-25-7, Dose [Inhibitor]: 0, 15 MG/KG 1/2 D FOR 26 WK BEGINNING 1 WK POST CARCINOGEN TREATMENT (STUDY DURATION: 52 WK), Route [Inhibitor]: SUBCUTANEOUS, Species: RAT, Strain/Sex: WISTAR/MALE, Target Tissue: Type of Lesion: STOMACH: ADENOCARCINOMA, Dose [Carcinogen]: 25 UG/ML IN DRINKING WATER FOR 25 WK, Promoter: SODIUM CHLORIDE, 7647-14-5","18/20 (90%), 12/20 (60%), 33%, not significant"
same,"tumour outcome (control, treated, inhibition, significance)","Carcinogen: N-METHYL-N-NITROSOUREA, 684-93-5, Dose [Inhibitor]: 0, 1 MG/30 G BW 1/4 WK FOR 25 WK BEGINNING 5 WK POST CARCINOGEN TREATMENT (STUDY DURATION: 30 WK), Route [Inhibitor]: SUBCUTANEOUS, Species: MOUSE, Strain/Sex: ICR/FEMALE, Target Tissue: Type of Lesion: UTERUS (LEFT): ADENOCARCINOMA, Dose [Carcinogen]: 0.1 MG/KG BW INJECTED INTO LEFT UTERINE TUBE ONCE","3/26 (11%), 0/15 (0%), 100%, not significant"
same,"tumour outcome (control, treated, inhibition, significance)","Carcinogen: N-METHYL-N-NITROSOUREA, 684-93-5, Dose [Inhibitor]: 0, 1 MG/30 G BW 1/4 WK FOR 25 WK BEGINNING 5 WK POST CARCINOGEN TREATMENT (STUDY DURATION: 30 WK), Route [Inhibitor]: SUBCUTANEOUS, Species: MOUSE, Strain/Sex: ICR/FEMALE, Target Tissue: Type of Lesion: UTERUS (LEFT): ADENOCARCINOMA, Dose [Carcinogen]: 0.1 MG/KG BW INJECTED INTO LEFT UTERINE TUBE ONCE, Promoter: 17-BETA-ESTRADIOL, 50-28-2","8/24 (33%), 0/19 (0%), 100%, p<0.01"
same,"tumour outcome (control, treated, inhibition, significance)","Carcinogen: N-METHYL-N;-NITRO-N-NITROSOGUANIDINE, 70-25-7, Carcinogen: N-METHYL-N;-NITRO-N-NITROSOGUANIDINE, 70-25-7, Dose [Inhibitor]: 0, 30 MG/KG 1/2 FOR 26 WK BEGINNING 1 WK POST CARCINOGEN TREATMENT (STUDY DURATION: 52 WK), Route [Inhibitor]: SUBCUTANEOUS, Species: RAT, Strain/Sex: WISTAR/MALE, Target Tissue: Type of Lesion: STOMACH: ADENOCARCINOMA, Dose [Carcinogen]: 25 UG/ML IN DRINKING WATER FOR 25 WK, Promoter: SODIUM CHLORIDE, 7647-14-5","18/20 (90%), 7/19 (37%), 59%, p<0.05"
CCOC(=O)Oc1ccc(/C=C/C=C/C(=O)NCCN2CCC(OC(c3ccccc3)c3ccccc3)CC2)cc1OC,"tumour outcome (control, treated, inhibition, significance)","Carcinogen: 7,12-DIMETHYLBENZ[A]ANTHRACENE, 57-97-6, Dose [Inhibitor]: 0, 30 MG/KG IN 5% TWEEN 80 ADMINISTERED 30 MIN PRIOR TO EACH PROMOTER DOSE 2/WK FOR 22 WK (STUDY DURATION: 25 WK), Route [Inhibitor]: ORAL, Species: MOUSE, Strain/Sex: CD-1/FEMALE, Target Tissue: Type of Lesion: SKIN: TUMOR, Dose [Carcinogen]: 200 NMOL ONCE, Promoter: 12-O-TETRADECANOYL-13-ACETATE, 16561-29-8","100%, 55%, 45%, p<0.05"
same,"tumour outcome (control, treated, inhibition, significance)","Carcinogen: 7,12-DIMETHYLBENZ[A]ANTHRACENE, 57-97-6, Dose [Inhibitor]: 0, 30 MG/KG IN 5% TWEEN 80 ADMINISTERED 30 MIN PRIOR TO EACH PROMOTER DOSE 2/WK FOR 22 WK (STUDY DURATION: 25 WK), Route [Inhibitor]: ORAL, Species: MOUSE, Strain/Sex: CD-1/FEMALE, Target Tissue: Type of Lesion: SKIN: TUMOR, Dose [Carcinogen]: 200 NMOL ONCE, Promoter: ANTHRALIN, 1143-38-0","92%, 35%, 62%, p<0.05"
same,"tumour outcome (control, treated, inhibition, significance)","Carcinogen: BENZO[A]PYRENE, 50-32-8, Dose [Inhibitor]: 0, 30 MG/KG IN 5% TWEEN 80 1/WK FOR 22 WK ADMINISTERED 30 MIN PRIOR TO EACH CARCINOGEN DOSE (STUDY DURATION: 22 WK), Route [Inhibitor]: ORAL, Species: MOUSE, Strain/Sex: CD-1/FEMALE, Target Tissue: Type of Lesion: SKIN: TUMOR, Dose [Carcinogen]: 200 NMOL 1/WK FOR 22 WK, Promoter: NONE USED","100%, 50%, 50%, p<0.05"
O=CC[C@@H](O)[C@H](O)[C@H](O)CO,outcome,"Carcinogen: 1-METHYL-1-NITROSOUREA [684-93-5], Dose [Inhibitor]: 0, 0.02, 0.03% IN DIET 6 D AFTER CARCINOGEN FOR 5 WKS, Route [Inhibitor]: DIET, Species: RAT, Strain/Sex: SPRAGUE-DAWLEY/FEMALE (30,30)/(30,30)/(30,30), Target Tissue: Type of Lesion: MAMMARY GLAND: ADENOCARCINOMA, Dose [Carcinogen]: 50 MG/KG BW AT 21 D OF AGE (STUDY DURATION: 6-7 WKS)","25/30 (83.3%); 15/30 (50%), 40%, p<0.001; 15/30 (50%), 40%, p<0.001"
